Measurements reported in patent US9011853B2, “B7-H4 fusion proteins and methods of use thereof” (Amplimmune, Inc., priority 2009, dated 2015).
Where “and” joins values, the source holds several entries; their conditions need not be identical. Equal entries are not always repeated.

Tested on: serum levels of 58 analytes
Experiment: Serum biomarker analysis, quantitative immunoassay multi-analyte profiling (Rules-Based Medicine RodentMAP v2.9), AA#80
Assay type: in vivo, mouse
Details: serum; for GCP-2 (Granulocyte Chemotactic Potein-2): LDD 0.0245; for GCP-2 (Granulocyte Chemotactic Potein-2) / IL-17-(Interleukin-17) / GST-alpha (Glutathione S-Transferase alpha) / IL-1beta (Interleukin-1beta) / IL-12p70-(Interleukin-12p70) / FGF-basic (Fibroblast Growth Factor-basic) / Haptoglobin / IL-18 (Interleukin-18) / CRP (C Reactive Protein) / Factor VII / FGF-9 (Fibroblast Growth Factor-9) / GM-CSF (Granulocyte Macrophage-Colony Stimulating Factor) / Apo A1 (Apoilpoprotein A1) / CD40 / Eotaxin / IL-3 (Interleukin-3) / EGF (Epidermal Growth Factor) / IL-1alpha (Interleukin-1alpha) / Endothelin-1 / IL-2 (Interleukin-2) / IFN-gamma (Interferon-gamma) / IL-4 (Interleukin-4) / IL-11 (Interleukin-11) / CD40 Ligand / IL-10 (Interleukin-10) / Fibrinogen: individual mice; for IL-17-(Interleukin-17): LDD 0.152; for GST-alpha (Glutathione S-Transferase alpha): LDD 0.42; for IL-1beta (Interleukin-1beta): LDD 0.447; for IL-12p70-(Interleukin-12p70): LDD 0.5712; for FGF-basic (Fibroblast Growth Factor-basic): LDD 0.577; for Haptoglobin: LDD 0.64; for IL-18 (Interleukin-18): LDD 0.674; for CRP (C Reactive Protein): LDD 0.83; for Factor VII: LDD 0.958; for FGF-9 (Fibroblast Growth Factor-9): LDD 0.9926; for GM-CSF (Granulocyte Macrophage-Colony Stimulating Factor): LDD 8.746; for Apo A1 (Apoilpoprotein A1): LDD 10.4; for CD40: LDD 12; for Eotaxin: LDD 12.25; for IL-3 (Interleukin-3): LDD 21.274; for EGF (Epidermal Growth Factor): LDD 39.1; for IL-1alpha (Interleukin-1alpha): LDD 44.92; for Endothelin-1: LDD 66.95; for IL-2 (Interleukin-2): LDD 67; for IFN-gamma (Interferon-gamma): LDD 67.82; for IL-4 (Interleukin-4): LDD 73.54; for IL-11 (Interleukin-11): LDD 87.38; for CD40 Ligand: LDD 92; for IL-10 (Interleukin-10): LDD 109.26; for Fibrinogen: LDD 170
Procedure: In AA#80, serum samples were collected on Day 27, Day 34, Day 41 and Day 55 via the submandibular vein. Approximately 200 μL of blood per mouse was collected in Microtainer® serum separator tubes. Serum was removed following centrifugation and stored at <−65° C. until analysis.
Selected serum samples were sent to Rules-Based Medicine (Austin, Tex.) for quantitative immunoassay multi-analyte profiling of serum samples, with the goal of identifying biomarkers that could be used to monitor disease progression and response to B7-H4-Ig treatment. Day 27, Day 34, and Day 41 sera from the three representative mice in the B7-H4-Ig group (tag #3332, 3334, and 3338) and three representative mice in the Synagis® group (tag #3324, 3329, and 3330) were analyzed for levels of 58 analytes using the RodentMAP v2.9 Testing Service.
Data from the Rules-Based Medicine analysis was analyzed using Microsoft Excel and GraphPad Prism software. T-tests were performed to compare the levels of each analyte in the B7-H4-Ig versus Synagis® treated samples. No correction was made for multiple comparisons. Additionally, correlation coefficients were calculated for each analyte versus disease score.

GST-alpha (Glutathione S-Transferase alpha) (Day 27): <low>
GST-alpha (Glutathione S-Transferase alpha) (Day 34): <low> and 4.16 ng/ml and 2.96 ng/ml
Substance: Human B7-H4-Ig: human B7-H4 extracellular domain fused to hinge, CH2 and CH3 regions of human immunoglobulin Cγ1 chain; representative SEQ ID NOs:114-137
VEGF (Vescular Endotheial Cell Growth Factor) (Day 41, LDD 38.2): 125 pg/mL and 120 pg/mL and 155 pg/mL
IP-10 (Inducible Protein-10) (Day 41, LDD 40.28): 69.3 pg/mL and 47.6 pg/mL and 59 pg/mL
LIF (Leukemia Infabitory Factor) (Day 41, LDD 43.6): 1540 pg/mL and 1980 pg/mL
MCP-5 (Monocyte Chemoattractant Protein-5) (Day 41, LDD 46.38): 48.8 pg/mL and 35.7 pg/mL and 37.9 pg/mL
SCF (Stem Cell Factor) (Day 41, LDD 75.17): 175 pg/mL and 198 pg/mL and 210 pg/mL
Lymphotactin (Day 41, LDD 85.48): 187 pg/mL and 148 pg/mL
VWF (Von Willebrand Factor) (Day 41, LDD 98.6): 113 ng/mL and 111 ng/mL and 133 ng/mL
GCP-2 (Granulocyte Chemotactic Potein-2) (Day 27): 18 ng/mL and 18.5 ng/mL and 16.6 ng/mL
IL-17-(Interleukin-17) (Day 27): <low> (2×) and 0.00451 ng/ml
IL-1beta (Interleukin-1beta) (Day 27): 4.36 ng/ml (2×) and 1.98 ng/ml
IL-12p70-(Interleukin-12p70) (Day 27): 0.0532 ng/ml (2×) and <low>
FGF-basic (Fibroblast Growth Factor-basic) (Day 27): 18.8 ng/mL and 17.8 ng/mL and 16.8 ng/mL
Haptoglobin (Day 27): 161 µg/mL and 204 µg/mL and 123 µg/mL
IL-18 (Interleukin-18) (Day 27): 13.3 ng/mL and 14.1 ng/mL and 11.7 ng/mL
CRP (C Reactive Protein) (Day 27): 13.4 µg/mL and 8.16 µg/mL and 7.98 µg/mL
Factor VII (Day 27): 33 ng/mL and 29.1 ng/mL and 26.4 ng/mL
FGF-9 (Fibroblast Growth Factor-9) (Day 27): <low>
GM-CSF (Granulocyte Macrophage-Colony Stimulating Factor) (Day 27): <low>
Apo A1 (Apoilpoprotein A1) (Day 27): 57.3 µg/mL and 53.7 µg/mL and 42.7 µg/mL
CD40 (Day 27): 135 pg/ml (2×) and 151 pg/ml
Eotaxin (Day 27): 626 pg/mL and 613 pg/mL and 623 pg/mL
IL-3 (Interleukin-3) (Day 27): <low>
EGF (Epidermal Growth Factor) (Day 27): 18.4 pg/mL and 21.4 pg/mL and 20.4 pg/mL
IL-1alpha (Interleukin-1alpha) (Day 27): 468 pg/mL and 284 pg/mL and 381 pg/mL
Endothelin-1 (Day 27): 20.2 pg/ml (2×) and 17.1 pg/ml
IL-2 (Interleukin-2) (Day 27): <low>
IFN-gamma (Interferon-gamma) (Day 27): <low> (2×) and 7.14 pg/ml
IL-4 (Interleukin-4) (Day 27): <low> and 27.9 pg/ml and 17.7 pg/ml
IL-11 (Interleukin-11) (Day 27): <low> (2×) and 27 pg/ml
CD40 Ligand (Day 27): 1980 pg/mL and 1550 pg/mL and 1320 pg/mL
IL-10 (Interleukin-10) (Day 27): <low> (2×) and 94.2 pg/ml
Fibrinogen (Day 27): <low>
GCP-2 (Granulocyte Chemotactic Potein-2) (Day 34): 17.1 ng/mL and 18.1 ng/mL and 16.2 ng/mL
IL-17-(Interleukin-17) (Day 34): 0.0152 ng/mL and 0.00808 ng/mL and 0.00572 ng/mL
IL-1beta (Interleukin-1beta) (Day 34): 5.12 ng/mL and 3.58 ng/mL
IL-12p70-(Interleukin-12p70) (Day 34): 0.0725 ng/ml and <low>
FGF-basic (Fibroblast Growth Factor-basic) (Day 34): 17.8 ng/mL
Haptoglobin (Day 34): 281 µg/mL and 162 µg/mL and 140 µg/mL
IL-18 (Interleukin-18) (Day 34): 11.7 ng/mL and 10.9 ng/mL and 13.1 ng/mL
CRP (C Reactive Protein) (Day 34): 17.2 µg/mL and 8.79 µg/mL and 12.4 µg/mL
Factor VII (Day 34): 31.7 ng/mL and 33 ng/mL and 29.1 ng/mL
FGF-9 (Fibroblast Growth Factor-9) (Day 34): <low>
GM-CSF (Granulocyte Macrophage-Colony Stimulating Factor) (Day 34): <low>
Apo A1 (Apoilpoprotein A1) (Day 34): 37.8 µg/mL and 48.5 µg/mL and 54.1 µg/mL
CD40 (Day 34): 96.7 pg/mL and 147 pg/mL and 136 pg/mL
Eotaxin (Day 34): 630 pg/mL and 602 pg/mL and 700 pg/mL
IL-3 (Interleukin-3) (Day 34): <low>
EGF (Epidermal Growth Factor) (Day 34): 22.4 pg/mL and 14.3 pg/mL and 20.4 pg/mL
IL-1alpha (Interleukin-1alpha) (Day 34): 361 pg/mL and 447 pg/mL and 587 pg/mL
Endothelin-1 (Day 34): 22.2 pg/mL and 20.2 pg/mL
IL-2 (Interleukin-2) (Day 34): <low>
IFN-gamma (Interferon-gamma) (Day 34): 7.14 pg/mL and 3.58 pg/mL
IL-4 (Interleukin-4) (Day 34): 17.7 pg/ml and <low>
IL-11 (Interleukin-11) (Day 34): 17.1 pg/mL
CD40 Ligand (Day 34): 1370 pg/mL and 2030 pg/mL and 2180 pg/mL
IL-10 (Interleukin-10) (Day 34): 94.2 pg/ml and <low>
Fibrinogen (Day 34): 136 ug/ml and <low>
GCP-2 (Granulocyte Chemotactic Potein-2) (Day 41): 16.9 ng/mL and 16.3 ng/mL and 20.9 ng/mL
IL-17-(Interleukin-17) (Day 41): 0.00572 ng/ml (2×) and <low>
GST-alpha (Glutathione S-Transferase alpha) (Day 41): 1.01 ng/mL and 0.477 ng/mL and 1.64 ng/mL
IL-1beta (Interleukin-1beta) (Day 41): 4.36 ng/ml and 5.12 ng/ml (2×)
IL-12p70-(Interleukin-12p70) (Day 41): <low> (2×) and 0.0914 ng/ml
FGF-basic (Fibroblast Growth Factor-basic) (Day 41): 19.9 ng/mL and 17.8 ng/mL and 18.8 ng/mL
Haptoglobin (Day 41): 267 µg/mL and 270 µg/mL and 193 µg/mL
IL-18 (Interleukin-18) (Day 41): 13.3 ng/mL and 11.7 ng/mL and 11.5 ng/mL
CRP (C Reactive Protein) (Day 41): 17.1 µg/mL and 10.6 µg/mL and 12.1 µg/mL
Factor VII (Day 41): 36.9 ng/mL and 30.4 ng/mL and 27.7 ng/mL
FGF-9 (Fibroblast Growth Factor-9) (Day 41): <low>
GM-CSF (Granulocyte Macrophage-Colony Stimulating Factor) (Day 41): <low>
Apo A1 (Apoilpoprotein A1) (Day 41): 46.8 µg/mL and 49.5 µg/mL and 46 µg/mL
CD40 (Day 41): 108 pg/mL and 105 pg/mL and 140 pg/mL
Eotaxin (Day 41): 629 pg/mL and 493 pg/mL and 694 pg/mL
IL-3 (Interleukin-3) (Day 41): <low>
EGF (Epidermal Growth Factor) (Day 41): 28.4 pg/mL and 16.3 pg/mL and 18.4 pg/mL
IL-1alpha (Interleukin-1alpha) (Day 41): 488 pg/mL and 284 pg/mL and 1950 pg/mL
Endothelin-1 (Day 41): 21.2 pg/mL and 20.2 pg/mL and 16 pg/mL
IL-2 (Interleukin-2) (Day 41): <low>
IFN-gamma (Interferon-gamma) (Day 41): 3.58 pg/ml (2×) and 7.14 pg/ml
IL-4 (Interleukin-4) (Day 41): 35.7 pg/ml and 17.7 pg/ml (2×)
IL-11 (Interleukin-11) (Day 41): 17.1 pg/ml and <low> (2×)
CD40 Ligand (Day 41): 1680 pg/mL and 1630 pg/mL and 1830 pg/mL
IL-10 (Interleukin-10) (Day 41): <low>
Fibrinogen (Day 41): <low> (2×) and 118 ug/ml
